Results from ChEMBL document CHEMBL5108065 (J Med Chem, 2022).
pIC50, pKd: −log10 of the molar value. Values after ≈ are worked out from the molar mass of the structure shown. Active and inactive are the calls of the source. The calls are words filed in the database; no cut-off is given here.

What was measured:
[1] = Toxicity in Han Wistar rat assessed as effect on pupillary reflex at 250 to 1000 mg/kg, po administered every other day for 7 days; format: organism-based; settings: in vivo, 168 h, dose 250-1000 mg/kg, time 7 day
[2] = Cmax in Han Wistar rat at 1000 mg/kg, po administered every other day for 7 days; format: ADME, organism-based; set-up: dose 1000 mg/kg, time 7 day, route po; settings: in vivo
[3] = Cardiotoxicity in anesthetized guinea-pig assessed as decrease in heart rate; format: toxicity, Cavia porcellus; settings: 0.09 µM, DDE = dose-dependent effect, dose 90 nM
[4] = molecular target: T1, Plasmepsin IX (Plasmodium falciparum, UniProt Q8ILG2); assay: Inhibition of PMIX in Plasmodium falciparum 3D7 HA epitope
T1 sequence (Q8ILG2 whole entry): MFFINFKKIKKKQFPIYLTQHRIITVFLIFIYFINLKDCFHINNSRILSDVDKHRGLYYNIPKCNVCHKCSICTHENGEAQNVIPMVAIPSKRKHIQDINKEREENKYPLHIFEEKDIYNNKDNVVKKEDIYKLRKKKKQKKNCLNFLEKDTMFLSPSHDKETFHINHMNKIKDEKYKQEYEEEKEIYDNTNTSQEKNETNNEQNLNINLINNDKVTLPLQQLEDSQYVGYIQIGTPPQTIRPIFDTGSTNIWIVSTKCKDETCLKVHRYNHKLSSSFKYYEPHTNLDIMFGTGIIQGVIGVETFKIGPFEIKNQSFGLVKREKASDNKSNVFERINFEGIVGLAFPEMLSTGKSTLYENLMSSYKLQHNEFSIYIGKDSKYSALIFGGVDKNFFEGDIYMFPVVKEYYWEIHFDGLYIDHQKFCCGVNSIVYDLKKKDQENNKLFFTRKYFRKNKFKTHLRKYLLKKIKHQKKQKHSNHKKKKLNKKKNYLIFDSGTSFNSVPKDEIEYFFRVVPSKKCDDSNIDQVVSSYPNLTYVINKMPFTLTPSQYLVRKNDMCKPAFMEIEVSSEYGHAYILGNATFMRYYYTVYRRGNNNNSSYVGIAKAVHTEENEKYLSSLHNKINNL

[5] = Toxicity in Han Wistar rat assessed as effect on scotopic amplitude at 1000 mg/kg, po administered every other day for 7 days by ERG analysis; format: organism-based; settings: in vivo, 168 h, time 7 day
[6] = Cardiotoxicity in anesthetized guinea-pig assessed as QRS widening at 1600 nM; format: toxicity, Cavia porcellus; settings: 1.6 µM
[7] = Toxicity in Han Wistar rat assessed as effect on photopic amplitude at 1000 mg/kg, po administered every other day for 7 days by ERG analysis; format: organism-based; settings: in vivo, 168 h, time 7 day
[8] = test system: Plasmodium falciparum; assay: Antimalarial activity against KAF156 resistant Plasmodium falciparum Dd2 harbouring pf-carl mutated loci assessed as inhibition of parasite growth pretreated for 48 hrs followed by [3H]-hypoxanthine addition measured after 24 hrs by scintillation counting method; format: functional, organism-based
[9] = Genotoxicity in Han Wistar rat by micronucleus assay; format: toxicity
[10] = AUC in Cynomolgus monkey blood at 10 mg/kg, po measured at 2 to 72 hrs by LC-MS/MS analysis; format: ADME, organism-based, Macaca fascicularis; set-up: dose 10 mg/kg, time 2-72 hrs, route po
[11] = test system: Plasmepsin X (Plasmodium falciparum); assay: Binding affinity to Plasmodium falciparum PMX assessed as dissociation constant by SPR analysis
[12] = test system: Plasmodium falciparum; assay: Antimalarial activity against Plasmodium falciparum 7G8 harbouring Pf-crt, Pf-mdrl,Pf-dhfr, Pf-dhps mutated loci assessed as inhibition of parasite growth pretreated for 48 hrs followed by [3H]-hypoxanthine addition measured after 24 hrs by scintillation counting method; format: functional, organism-based
[13] = Toxicity in Han Wistar rat assessed as body weight gain at 250 to 1000 mg/kg, po administered every other day for 7 days; format: organism-based; settings: in vivo, 168 h, dose 250-1000 mg/kg, time 7 day
[14] = Drug metabolism in dog hepatocytes assessed as (S)-6-(2-chloro-3-((6-cyclopropylpyridin-3-yl)amino)phenyl)-2-imino-6-methyl-3-((2S,4S)-2-methyltetrahydro-2H-pyran-4-yl)tetrahydropyrimidin-4(1H)-one metabolite formation; format: ADME, cell-based, Canis lupus familiaris, Hepatocyte
[15] = test system: Plasmodium falciparum; assay: Antimalarial activity against blood stage Plasmodium infected in NSG mouse model assessed as parasite recrudescence by measuring parasitemia at 50 mg/kg, po measured 60 days by flow cytometry; format: functional, organism-based; settings: time 60.0 day
[16] = Drug metabolism in Cynomolgus monkey hepatocytes assessed as (S)-6-(2-chloro-3-((6-cyclopropylpyridin-3-yl)amino)phenyl)-2-imino-6-methyl-3-((2S,4S)-2-methyltetrahydro-2H-pyran-4-yl)tetrahydropyrimidin-4(1H)-one metabolite formation; format: ADME, cell-based, Macaca fascicularis, Hepatocyte
[17] = Drug metabolism in dog hepatocytes assessed as (S)-6-(2-chloro-3-((6-cyclopropylpyridin-3-yl)amino)phenyl)-2-imino-6-methyltetrahydropyrimidin-4(1H)-one metabolite formation; format: ADME, cell-based, Canis lupus familiaris, Hepatocyte
[18] = Drug metabolism in human hepatocytes assessed as (S)-6-(2-chloro-3-((6-cyclopropylpyridin-3-yl)amino)phenyl)-2-imino-6-methyl-3-((2S,4S)-2-methyltetrahydro-2H-pyran-4-yl)tetrahydropyrimidin-4(1H)-one metabolite formation; format: ADME, cell-based, Hepatocyte
[19] = Solubility of the compound in FeSSIF at pH 5.8; format: physicochemical; settings: simulated gi fluid
[20] = Solubility of the compound in FeSSIF; format: physicochemical; settings: simulated gi fluid
[21] = Inhibition of Plasmodium falciparum PMV by FRET assay
[22] = test system: Plasmodium falciparum; assay: Antimalarial activity against blood stage Plasmodium infected in NSG mouse model assessed as parasite recrudescence by measuring parasitemia at 50 mg/kg, po measured 96 hrs by flow cytometry; format: functional, organism-based
[23] = AUClast in NSG mouse at 50 mg/kg, po by LC-MS/MS analysis; format: ADME, organism-based; set-up: time 0 - last, dose 50 mg/kg, route po; settings: in vivo
[24] = Drug metabolism in human hepatocytes assessed as (S)-6-(2-chloro-3-((6-cyclopropylpyridin-3-yl)amino)phenyl)-2-imino-6-methyltetrahydropyrimidin-4(1H)-one metabolite formation; format: ADME, cell-based, Hepatocyte
[25] = molecular target: T2, A-type voltage-gated potassium channel KCND3 (Homo sapiens, UniProt Q9UK17); assay: Inhibition of Kv4.3 (unknown origin) by patch clamp method; format: toxicity
T2 sequence (Q9UK17 whole entry): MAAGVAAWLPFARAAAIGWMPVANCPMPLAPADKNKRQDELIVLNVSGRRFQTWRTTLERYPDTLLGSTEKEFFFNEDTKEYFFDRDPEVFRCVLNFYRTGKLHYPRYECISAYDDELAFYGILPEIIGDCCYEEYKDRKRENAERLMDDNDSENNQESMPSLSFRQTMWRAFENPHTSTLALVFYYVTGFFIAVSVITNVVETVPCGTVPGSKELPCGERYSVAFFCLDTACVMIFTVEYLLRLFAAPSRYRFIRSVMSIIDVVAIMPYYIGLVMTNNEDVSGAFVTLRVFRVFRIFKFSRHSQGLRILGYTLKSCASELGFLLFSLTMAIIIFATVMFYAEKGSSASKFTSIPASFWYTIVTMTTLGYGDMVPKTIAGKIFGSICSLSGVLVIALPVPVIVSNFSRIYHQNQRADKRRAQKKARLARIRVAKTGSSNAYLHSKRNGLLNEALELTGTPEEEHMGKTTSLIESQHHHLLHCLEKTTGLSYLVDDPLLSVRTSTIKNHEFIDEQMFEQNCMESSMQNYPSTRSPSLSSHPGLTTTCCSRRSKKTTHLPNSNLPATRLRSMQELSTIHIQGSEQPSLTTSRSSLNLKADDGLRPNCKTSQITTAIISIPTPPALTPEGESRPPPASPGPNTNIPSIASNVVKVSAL

With `C[C@H]1C[C@@H](N2C(=N)N[C@](C)(c3cccc(NC(=O)c4cccc(C#N)c4)c3Cl)CC2=O)CCO1` the Activity [1] was “Non-Toxic”, the Cmax [2] was 25000 ng/mL and the Activity [3] was “Dde”. For the same molecule, the pIC50 [4] was 6.85, the Activity [5] was “Non-Toxic” and the Activity [6] was “Non-Toxic”. The Activity [7] was “Non-Toxic”, the pIC50 [8] was 7.72 and the Activity [9] was “Non-Toxic”. For the same molecule, the AUC [10] was 7.38 µM·h, the pKd [11] was 8.26 and the pIC50 [12] was 7.62. For the same molecule, the Activity [13] was “Non-Toxic”.

For `C[C@H]1C[C@@H](N2C(=N)N[C@](C)(c3cccc(Nc4ccc(C5CC5)nc4)c3Cl)CC2=O)CCO1`, the Drug metabolism [14] was “Metabolite_Detected”, the Activity [15] was “Active” and the Drug metabolism [16] was “Metabolite_Detected”. For the same molecule, the Drug metabolism [17] was “Metabolite_Detected”, the Drug metabolism [18] was “Metabolite_Detected” and the solubility [19] was 959 µM (≈ 449 µg/mL). The solubility [20] was 960 µM (≈ 449 µg/mL), the pIC50 [21] was less than 5.00 and the Activity [22] was “Active”. For the same molecule, the AUC [23] was 2 10^6nM, the Drug metabolism [24] was “Metabolite_Detected” and the pIC50 [25] was 4.55.
